In paper PMC4417528, “Loureirin B, an essential component of Sanguis Draxonis, inhibits Kv1.3 channel and suppresses cytokine release from Jurkat T cells” (Cell & Bioscience, 2014):

How the values were obtained:
Type in all cases: cell-based
[1] = biological target: T1, mKv1.3-H404T (Mus musculus, UniProt P16390, H404T); experiment: whole-cell patch clamp, HEK293T cells, steady-state current at +[…] mV
T1 construct: gene Kcna3; mKv1.3 mutant expressed in HEK293T cells

[2] = biological target: T2, mKv1.3 (Mus musculus, UniProt P16390); experiment: as above
T2 construct: gene Kcna3; wild-type mKv1.3 expressed in HEK293T cells
T2 sequence (P16390 whole entry): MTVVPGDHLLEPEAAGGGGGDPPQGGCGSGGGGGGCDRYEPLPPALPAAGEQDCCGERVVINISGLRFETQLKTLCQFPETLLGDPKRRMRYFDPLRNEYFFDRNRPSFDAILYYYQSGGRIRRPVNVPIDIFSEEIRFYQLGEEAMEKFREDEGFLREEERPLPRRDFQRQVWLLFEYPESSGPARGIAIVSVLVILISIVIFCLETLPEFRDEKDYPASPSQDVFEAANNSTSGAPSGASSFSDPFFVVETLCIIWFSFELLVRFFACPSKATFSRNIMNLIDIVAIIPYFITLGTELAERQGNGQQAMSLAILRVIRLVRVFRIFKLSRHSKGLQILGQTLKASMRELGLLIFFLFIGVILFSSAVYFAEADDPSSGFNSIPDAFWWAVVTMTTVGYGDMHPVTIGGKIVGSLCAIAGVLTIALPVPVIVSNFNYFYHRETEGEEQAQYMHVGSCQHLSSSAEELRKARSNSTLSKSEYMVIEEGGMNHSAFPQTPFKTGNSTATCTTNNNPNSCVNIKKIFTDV

[3] = biological target: T3, Kv1.3 (Homo sapiens, UniProt P22001); experiment: whole-cell patch clamp, Jurkat T cells
T3 construct: gene KCNA3; endogenous Kv1.3 in Jurkat T cells
T3 sequence (P22001 whole entry): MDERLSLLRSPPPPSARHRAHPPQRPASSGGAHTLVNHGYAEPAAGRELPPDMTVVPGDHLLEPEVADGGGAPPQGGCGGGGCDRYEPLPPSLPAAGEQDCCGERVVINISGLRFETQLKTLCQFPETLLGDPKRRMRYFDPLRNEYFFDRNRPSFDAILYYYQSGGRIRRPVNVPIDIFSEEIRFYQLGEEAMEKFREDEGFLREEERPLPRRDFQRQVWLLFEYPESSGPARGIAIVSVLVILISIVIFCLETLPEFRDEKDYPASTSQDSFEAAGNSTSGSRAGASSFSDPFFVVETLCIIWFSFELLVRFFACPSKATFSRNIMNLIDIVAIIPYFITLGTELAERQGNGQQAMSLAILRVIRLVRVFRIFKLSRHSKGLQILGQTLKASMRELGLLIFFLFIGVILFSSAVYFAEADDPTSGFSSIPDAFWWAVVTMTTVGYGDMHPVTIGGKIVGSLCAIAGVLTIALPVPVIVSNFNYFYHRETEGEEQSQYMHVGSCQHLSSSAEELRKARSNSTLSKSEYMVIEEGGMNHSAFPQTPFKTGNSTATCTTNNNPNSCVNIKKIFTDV

[4] = biological target: T4, mKv1.3-A418C (Mus musculus, UniProt P16390, A418C); experiment: whole-cell patch clamp, HEK293T cells, steady-state current at +[…] mV
T4 construct: gene Kcna3; mKv1.3 mutant expressed in HEK293T cells
T4 sequence (P16390 whole entry A418C): as the sequence (P16390 whole entry) above, with A418C counted along it

T1 sequence (P16390 whole entry H404T): as the sequence (P16390 whole entry) above, with H404T counted along it

- IC50 [1]: 116 ± 19.8 µM
- IC50 [2]: 7.2 ± 0.6 µM
- IC50 [3]: 19.9 ± 1.8 µM
- IC50 [4]: 29.1 ± 7.1 µM
SMILES: COc1cc(OC)c(CCC(=O)c2ccc(O)cc2)c(OC)c1 [LrB, loureirin B]
